# Experimental data published in US8450313B2, “2,3-diaryl- or heteroaryl-substituted 1,1,1-trifluoro-2-hydroxypropyl compounds” (Hoffmann-La Roche Inc., priority 2009, dated 2013).
# Molecular target: T1, full length human recombinant glucocorticoid receptor (Homo sapiens, UniProt P04150)
# T1 construct: It contains some partially purified full length human recombinant glucocorticoid receptor; purchased Panvera/Invitrogen PV4302
# T1 sequence (P04150 1-777): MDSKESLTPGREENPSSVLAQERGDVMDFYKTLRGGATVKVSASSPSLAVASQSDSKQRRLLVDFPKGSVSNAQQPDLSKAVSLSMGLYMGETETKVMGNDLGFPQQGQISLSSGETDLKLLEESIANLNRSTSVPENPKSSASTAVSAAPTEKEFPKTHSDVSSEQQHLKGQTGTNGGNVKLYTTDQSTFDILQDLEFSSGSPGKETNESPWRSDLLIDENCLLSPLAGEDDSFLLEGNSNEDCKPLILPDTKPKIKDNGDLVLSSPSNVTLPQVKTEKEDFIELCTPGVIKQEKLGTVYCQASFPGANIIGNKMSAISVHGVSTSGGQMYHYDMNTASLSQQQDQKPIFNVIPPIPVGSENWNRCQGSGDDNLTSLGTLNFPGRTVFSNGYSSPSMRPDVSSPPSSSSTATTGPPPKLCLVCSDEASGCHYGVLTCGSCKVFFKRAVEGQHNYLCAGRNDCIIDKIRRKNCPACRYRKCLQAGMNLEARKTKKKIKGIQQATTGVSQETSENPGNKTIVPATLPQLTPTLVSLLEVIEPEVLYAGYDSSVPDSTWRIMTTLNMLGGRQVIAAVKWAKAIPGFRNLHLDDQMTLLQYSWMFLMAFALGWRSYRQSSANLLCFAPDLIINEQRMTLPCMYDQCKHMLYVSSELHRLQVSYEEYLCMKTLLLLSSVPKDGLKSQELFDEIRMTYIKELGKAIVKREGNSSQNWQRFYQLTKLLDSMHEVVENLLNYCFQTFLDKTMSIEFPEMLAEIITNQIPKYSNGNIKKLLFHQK
# Test: Glucocorticoid Receptor Binding Assay (Glucocorticoid Receptor Competitor Assay far red kit, fluorescence polarization)
# Conditions: competition with fluorescent GR ligand Fluormone GS Far Red, 3 hours at 22° C., pH 7.4; Ki calculated from IC50 by Cheng-Prusoff
# Summary of the method: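 Compounds in serial dilution (from intermediate 4.2% DMSO stock) displace Fluormone GS Far Red from full-length human recombinant GR with stabilizing peptide, pH 7.4, incubated 3 hours at 22° C dark. Polarized fluorescence (610–660 nm) gives IC50 via sigmoidal fit, converted to Ki by Cheng-Prusoff.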
row,SMILES,Ki
1,"C[C@H](c1ccc(C(=O)NCC(=O)O)cc1Cl)[C@@](O)(c1ccc2oc(=O)n(C)c2c1)C(F)(F)F (stereo in doubt) [Example 232, {3-Chloro-4-[3,3,3-trifluoro-2-hydroxy-1-methyl-2-(3-methyl-2-oxo-2,3-dihydrobenzooxazol-5-yl)-propyl]-benzoylamino}-acetic acid]",92.4 nM
2,C[C@H](c1ccc(Oc2cc(C(F)(F)F)c(C(=O)O)cn2)cc1Cl)[C@@](O)(c1ccc2c(c1)N(C)C(=O)CO2)C(F)(F)F [Example 62],2.1 nM
3,"CC(c1ccc(Oc2ccc(C(=O)O)cc2F)cc1Cl)C(O)(c1ccc2c(c1)n(C)c(=O)n2C)C(F)(F)F (stereo not shown) [Example 86, 4-{3-Chloro-4-[2-(1,3-dimethyl-2-oxo-2,3-dihydro-1H-benzoimidazol-5-yl)-3,3,3-trifluoro-2-hydroxy-1-methyl-propyl]-phenoxy}-3-fluoro-benzoic acid]",2.7 nM
4,"C[C@@H](c1ccc(-c2ccc(C(=O)O)c(F)c2)cc1Cl)[C@](O)(c1ccc2oc(=O)n(C)c2c1)C(F)(F)F [Example 119, 3′-Chloro-3-fluoro-4′-[(1S,2S)-3,3,3-trifluoro-2-hydroxy-1-methyl-2-(3-methyl-2-oxo-2,3-dihydro-benzooxazol-5-yl)-propyl]-biphenyl-4-carboxylic acid]",0.3 nM
5,"CC(c1ccc(Oc2ccc(C(=O)O)c(Cl)c2)cc1Cl)C(O)(c1ccc(C#N)cc1)C(F)(F)F (stereo not shown) [Example 156, 2-Chloro-4-{3-chloro-4-[2-(4-cyano-phenyl)-3,3,3-trifluoro-2-hydroxy-1-methyl-propyl]-phenoxy}-benzoic acid]",192 nM
6,"C[C@H](c1ccc(Oc2ncc(C(=O)O)cc2Cl)cc1Cl)[C@@](O)(c1ccc2c(c1)N(C)C(=O)CO2)C(F)(F)F [Example 223, 5-Chloro-6-{3-chloro-4-[(1R,2R)-3,3,3-trifluoro-2-hydroxy-1-methyl-2-(4-methyl-3-oxo-3,4-dihydro-2H-benzo[1,4]oxazin-6-yl)-propyl]-phenoxy}-nicotinic acid]",552 nM
7,"C[C@@H](c1ccc(Oc2ncc(C(=O)O)cc2Cl)cc1Cl)[C@](O)(c1ccc2c(c1)N(C)C(=O)CO2)C(F)(F)F [Example 224, 5-Chloro-6-{3-chloro-4-[(1S,2S)-3,3,3-trifluoro-2-hydroxy-1-methyl-2-(4-methyl-3-oxo-3,4-dihydro-2H-benzo[1,4]oxazin-6-yl)-propyl]-phenoxy}-nicotinic acid]",0.8 nM

# Further compounds by falling Ki, results first:
row,Ki,SMILES
1,119 nM,"C[C@H](c1ccc(Oc2ccc(C(=O)O)c(Cl)c2)cc1Cl)[C@@](O)(c1ccc2c(c1)N(C)C(=O)CO2)C(F)(F)F [Example 218, 2-Chloro-4-{3-chloro-4-[(1R,2R)-3,3,3-trifluoro-2-hydroxy-1-methyl-2-(4-methyl-3-oxo-3,4-dihydro-2H-benzo[1,4]oxazin-6-yl)-propyl]-phenoxy}-benzoic acid]"
2,46 nM,"C[C@H](c1ccc(-c2ccc(C(=O)O)c(F)c2)cc1Cl)[C@@](O)(c1ccc2oc(=O)n(C)c2c1)C(F)(F)F [Example 120, 3′-Chloro-3-fluoro-4′-[(1R,2R)-3,3,3-trifluoro-2-hydroxy-1-methyl-2-(3-methyl-2-oxo-2,3-dihydro-benzooxazol-5-yl)-propyl]-biphenyl-4-carboxylic acid]"
3,7.3 nM,"CC(c1ccc(-c2ccc(C(=O)O)c(F)c2)cc1Cl)C(O)(c1ccc2c(c1)n(C)c(=O)n2C)C(F)(F)F (stereo not shown) [Example 73, 3′-Chloro-4′-[2-(1,3-dimethyl-2-oxo-2,3-dihydro-1H-benzoimidazol-5-yl)-3,3,3-trifluoro-2-hydroxy-1-methyl-propyl]-3-fluoro-biphenyl-4-carboxylic acid]"
4,3.7 nM,"CC(c1ccc(Oc2ccc(C(=O)O)cc2Cl)cc1Cl)C(O)(c1ccc2c(c1)n(C)c(=O)n2C)C(F)(F)F (stereo not shown) [Example 87, 3-Chloro-4-{3-chloro-4-[2-(1,3-dimethyl-2-oxo-2,3-dihydro-1H-benzoimidazol-5-yl)-3,3,3-trifluoro-2-hydroxy-1-methyl-propyl]-phenoxy}-benzoic acid]"
5,1.9 nM,"CC(c1ccc(-c2ccc(OCC(=O)O)cc2)cc1Cl)C(O)(c1ccc2c(c1)n(C)c(=O)n2C)C(F)(F)F (stereo not shown) [Example 75, {3′-Chloro-4′-[2-(1,3-dimethyl-2-oxo-2,3-dihydro-1H-benzoimidazol-5-yl)-3,3,3-trifluoro-2-hydroxy-1-methyl-propyl]-biphenyl-4-yloxy}-acetic acid]"
6,1.3 nM,C[C@H](c1ccc(Oc2ccc(C(=O)O)c(F)c2)cc1Cl)[C@@](O)(c1ccc2c(c1)N(C)C(=O)CO2)C(F)(F)F [Example 57]
7,0.8 nM,"CC(c1ccc(O)cc1Cl)C(O)(c1ccc2c(c1)n(C)c(=O)n2C)C(F)(F)F (stereo not shown) [Example 85, 5-[2-(2-Chloro-4-hydroxy-phenyl)-1-hydroxy-1-trifluoromethyl-propyl]-1,3-dimethyl-1,3-dihydro-benzoimidazol-2-one]"
8,0.8 nM,"C[C@@H](c1ccc(Oc2ccc(C(=O)O)c(Cl)c2)cc1Cl)[C@](O)(c1ccc2c(c1)N(C)C(=O)CO2)C(F)(F)F [Example 219, 2-Chloro-4-{3-chloro-4-[(1S,2S)-3,3,3-trifluoro-2-hydroxy-1-methyl-2-(4-methyl-3-oxo-3,4-dihydro-2H-benzo[1,4]oxazin-6-yl)-propyl]-phenoxy}-benzoic acid]"
9,0.3 nM,"CC(c1ccc(Oc2ccc(F)c(C(=O)O)c2)cc1Cl)C(O)(c1ccc2c(c1)n(C)c(=O)n2C)C(F)(F)F (stereo not shown) [Example 91, 5-{3-Chloro-4-[2-(1,3-dimethyl-2-oxo-2,3-dihydro-1H-benzoimidazol-5-yl)-3,3,3-trifluoro-2-hydroxy-1-methyl-propyl]phenoxy}-2-fluoro-benzoic acid]"
